Where two headings read alike, the source gives them in different places.
Molecular target: T1, native (Human Hepatoma Huh-7) AhR receptor (Homo sapiens, UniProt P35869)
T1 construct: expression of native (Human Hepatoma Huh-7) AhR receptor reporter gene cells; endogenous in cells; host or cells: Human hepatoma Huh-7 cells carrying a firefly luciferase reporter vector
T1 sequence (P35869 11-848): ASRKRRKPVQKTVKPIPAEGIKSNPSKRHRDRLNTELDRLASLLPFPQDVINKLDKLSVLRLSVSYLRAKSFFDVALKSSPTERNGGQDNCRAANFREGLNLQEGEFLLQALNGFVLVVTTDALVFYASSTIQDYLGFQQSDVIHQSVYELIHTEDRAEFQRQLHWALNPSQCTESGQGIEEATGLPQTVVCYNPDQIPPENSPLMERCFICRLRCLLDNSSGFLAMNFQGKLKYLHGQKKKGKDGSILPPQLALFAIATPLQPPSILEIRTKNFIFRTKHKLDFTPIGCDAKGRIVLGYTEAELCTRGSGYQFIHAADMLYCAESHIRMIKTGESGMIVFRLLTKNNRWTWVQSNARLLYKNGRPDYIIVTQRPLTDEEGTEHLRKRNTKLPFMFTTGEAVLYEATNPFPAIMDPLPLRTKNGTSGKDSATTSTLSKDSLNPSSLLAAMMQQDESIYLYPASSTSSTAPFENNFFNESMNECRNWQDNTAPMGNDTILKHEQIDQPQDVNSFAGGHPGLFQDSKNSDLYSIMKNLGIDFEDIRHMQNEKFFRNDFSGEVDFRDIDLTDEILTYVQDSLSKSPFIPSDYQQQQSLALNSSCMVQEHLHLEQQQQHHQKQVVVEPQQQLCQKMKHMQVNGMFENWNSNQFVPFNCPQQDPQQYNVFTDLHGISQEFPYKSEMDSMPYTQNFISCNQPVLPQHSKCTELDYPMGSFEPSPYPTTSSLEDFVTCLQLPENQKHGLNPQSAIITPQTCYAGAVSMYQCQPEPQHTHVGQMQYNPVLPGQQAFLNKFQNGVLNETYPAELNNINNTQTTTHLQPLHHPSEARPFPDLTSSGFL
Assay: AhR agonism assay (luciferase reporter gene cells)
Assay type: cell-based
Procedure: Assay Materials (plasmids): expression of native (Human Hepatoma Huh-7) AhR receptor reporter gene cells, the reporter vector includes functional firefly luciferase gene linked to upstream receptor-specific genetic response elements (GRE).
The AhR agonism assay comprises the following three steps:
1. Cell implantation: a suspension of AhR receptor cells was prepared in cell recovery medium (CRM; FBS containing 10% activated carbon). Then, the prepared suspension (100 μl) was dispensed into wells of a white 96-well culture plate.
2. Right before the beginning of the experiment, Master Stocks were diluted to “2× concentration” treatment media with appropriate compound screening media (CSM: FBS containing 10% activated carbon). The test compounds were subjected to gradient dilution with CSM medium containing 0.2% DMSO, so that the final concentration of DMSO in each experimental well for each treatment group was 0.1%. […] The experimental plate was placed in an incubator at 37° C. for 24 h.
3. Fluorescence detection and analysis: after completion of the incubation, the treatment media were discarded and 100 μL/well of luciferase detection reagent was added. The Ave RLU (average relative fluorescence intensity) of each well and the coefficient of variation for each experimental group were determined. The activity of AhR receptor with various concentrations of the test compounds was quantitatively determined using a ratio of Ave RLU^Test Cmpd of various concentrations of the test compounds in the experimental group to Ave RLU^Vehicle of the blank control group, and fold activation and EC50 were determined.
For data processing method, refer to J. Biomol.

EC50 (AhR receptor reporter gene cells, 24 h incubation at 37° C., luciferase readout, read-out: EC50) [µM]	Structure (SMILES)	EC50 [µM]
10 to 100	CC(C)c1ncc(C(=O)c2c[nH]c3ccccc23)s1 [Compound 10]	–
–	COC(=O)c1nsc(C(=O)c2c[nH]c3ccc(F)cc23)n1 [Compound 13]	1 to 10
–	COC(=O)c1nsc(C(=O)c2c[nH]c3ccc(OC)cc23)n1 [Compound 14]	1 to 10

From patent US20190307731A1, “ARYL HYDROCARBON RECEPTOR MODULATOR” (Ariagen, Inc., priority 2016, published 2019)
